Assays:
Test in all cases: relative viability (nuclei count vs DMSO), 5 days (fraction); higher = more cells survive
[1] = test system: NCI-H2170
In short: (§1)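 After 5 days of treatment, lung cancer cells in 1536-well plates were fixed and stained in a single step (final 0.05% Triton X-100, 1% formaldehyde, 1 ug/ml Hoechst) and their nuclei counted on 4× images. Treatment had been applied by pin tool the day after seeding as one drug alone or as a fixed anchor-drug dose with five library-drug doses (not always all listed) in √10 steps. Relative viability is the nuclei count of treated wells divided by that of vehicle wells, and values are medians of duplicate plates.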

[2] = test system: NCI-H2228
In short: as §1

[3] = test system: NCI-H3122
In short: as §1

[4] = test system: NCI-H322M
In short: as §1

[5] = test system: NCI-H522
In short: as §1

[6] = test system: NCI-H596
In short: as §1

[7] = test system: NCI-H727
In short: as §1

[8] = test system: PC-3 [JPC-3]
In short: as §1

[9] = test system: SK-MES-1
In short: as §1

[10] = test system: SW 1573
In short: as §1

[11] = test system: SW 900
In short: as §1

Work on `Cc1sc2c(c1C)C(c1ccc(Cl)cc1)=N[C@@H](CC(=O)OC(C)(C)C)c1nnc(C)n1-2` [JQ1] + CC(=O)Nc1cccc(-n2c(=O)n(C3CC3)c(=O)c3c(Nc4ccc(I)cc4F)n(C)c(=O)c(C)c32)c1 [Trametinib] (partner 0.02 µM) yielded a relative viability ([1]; first compound 1.265 µM) of 0.585, a relative viability ([1]; first compound 4 µM) of 0.519 and a relative viability ([2]; first compound 0.04 µM) of 0.483. It also gave a relative viability ([2]; first compound 0.1265 µM) of 0.396, a relative viability ([2]; first compound 0.4 µM) of 0.424 and a relative viability ([2]; first compound 1.265 µM) of 0.276. It also gave a relative viability ([2]; first compound 4 µM) of 0.181, a relative viability ([3]; first compound 0.04 µM) of 0.219 and a relative viability ([3]; first compound 0.1265 µM) of 0.179. It also gave a relative viability ([3]; first compound 0.4 µM) of 0.322, a relative viability ([3]; first compound 1.265 µM) of 0.317 and a relative viability ([3]; first compound 4 µM) of 0.304. The relative viability ([4]; first compound 0.04 µM) was 0.555, the relative viability ([4]; first compound 0.1265 µM) was 0.644 and the relative viability ([4]; first compound 0.4 µM) was 0.45. It also gave a relative viability ([4]; first compound 1.265 µM) of 0.334, a relative viability ([4]; first compound 4 µM) of 0.539 and a relative viability ([5]; first compound 0.04 µM) of 0.767. For the same compound, the relative viability ([5]; first compound 0.1265 µM) was 0.631, the relative viability ([5]; first compound 0.4 µM) was 0.485 and the relative viability ([5]; first compound 1.265 µM) was 0.482. For the same compound, the relative viability ([5]; first compound 4 µM) was 0.447, the relative viability ([6]; first compound 0.04 µM) was 0.776 and the relative viability ([6]; first compound 0.1265 µM) was 0.683. The relative viability ([6]; first compound 0.4 µM) was 0.442, the relative viability ([6]; first compound 1.265 µM) was 0.338 and the relative viability ([6]; first compound 4 µM) was 0.31. It also gave a relative viability ([7]; first compound 0.04 µM) of 0.403, a relative viability ([7]; first compound 0.1265 µM) of 0.421 and a relative viability ([7]; first compound 0.4 µM) of 0.381. For the same compound, the relative viability ([7]; first compound 1.265 µM) was 0.365, the relative viability ([7]; first compound 4 µM) was 0.401 and the relative viability ([8]; first compound 0.04 µM) was 0.683. For the same compound, the relative viability ([8]; first compound 0.1265 µM) was 0.609, the relative viability ([8]; first compound 0.4 µM) was 0.49 and the relative viability ([8]; first compound 1.265 µM) was 0.475. It also gave a relative viability ([8]; first compound 4 µM) of 0.461, a relative viability ([9]; first compound 0.04 µM) of 0.446 and a relative viability ([9]; first compound 0.1265 µM) of 0.309. The relative viability ([9]; first compound 0.4 µM) was 0.32, the relative viability ([9]; first compound 1.265 µM) was 0.24 and the relative viability ([9]; first compound 4 µM) was 0.259. For the same compound, the relative viability ([10]; first compound 0.04 µM) was 0.422, the relative viability ([10]; first compound 0.1265 µM) was 0.357 and the relative viability ([10]; first compound 0.4 µM) was 0.277. It also gave a relative viability ([10]; first compound 1.265 µM) of 0.189, a relative viability ([10]; first compound 4 µM) of 0.187 and a relative viability ([11]; first compound 0.04 µM) of 0.804. It also gave a relative viability ([11]; first compound 0.1265 µM) of 0.582, a relative viability ([11]; first compound 0.4 µM) of 0.532 and a relative viability ([11]; first compound 1.265 µM) of 0.205. The relative viability ([11]; first compound 4 µM) was 0.204.

From the supplement of paper PMC10307832
